Laboratory results published in PMC10435442, “Developing multitarget coumarin based anti-breast cancer agents: synthesis and molecular modeling study” (Scientific Reports, 2023).
In brackets after ≈: the same amount, converted by molar mass. Several values for one entry are separate records, joined by “and”; a condition that tells them apart may be missing. Equal values may be shown once. Read-outs that look alike come from different tables or passages of the source. Marks after values point to notes of the source that are not given here.

Columns and labels:
in vitro = conditions: human, MCF-10A cells (nonmalignant breast)
EGFR = EGFR (Homo sapiens, UniProt P00533); test: In vitro EGFR enzyme inhibition assay (ELISA); conditions: for EGFR %inh: lab report 01-11-2021
aromatase (ARO) = target: T1, aromatase (ARO) (Homo sapiens, UniProt P11511); test: In vitro aromatase (ARO) enzyme inhibition assay (ELISA)
T1 sequence (P11511 1-503): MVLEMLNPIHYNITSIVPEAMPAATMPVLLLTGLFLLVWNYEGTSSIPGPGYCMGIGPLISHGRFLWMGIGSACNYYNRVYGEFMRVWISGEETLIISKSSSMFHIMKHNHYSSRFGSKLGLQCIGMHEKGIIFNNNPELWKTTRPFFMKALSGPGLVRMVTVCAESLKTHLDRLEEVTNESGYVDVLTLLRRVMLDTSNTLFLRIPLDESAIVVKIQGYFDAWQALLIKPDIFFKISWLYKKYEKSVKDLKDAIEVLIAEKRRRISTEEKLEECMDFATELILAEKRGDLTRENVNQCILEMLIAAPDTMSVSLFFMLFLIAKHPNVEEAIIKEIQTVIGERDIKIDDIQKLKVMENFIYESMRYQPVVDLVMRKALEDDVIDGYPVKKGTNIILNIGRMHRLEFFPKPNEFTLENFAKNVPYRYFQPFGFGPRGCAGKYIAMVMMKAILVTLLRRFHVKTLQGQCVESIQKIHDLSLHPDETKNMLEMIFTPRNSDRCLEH

MDA-MB-231 [1] = test: MTT cytotoxicity assay, MDA-MB-231; conditions: for IC50: Homo sapiens; for % viability: MDA
MCF-10A = test: MTT cytotoxicity assay, nonmalignant MCF-10A; conditions: read-out: MCF-10A IC50; MTT, nonmalignant MCF-10A;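 note: MTT assay with absorbance read at 570 nm after 48 h exposure of cells to serial compound concentrations at 37 °C, testing selectivity against nonmalignant versus cancer cells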
MCF-7 [2] = test: MTT cytotoxicity assay, MCF-7; conditions: for IC50: Homo sapiens
Bax = Bax level (ELISA) in treated cells; assay type: cell-based, human
Bcl-2 = Bcl-2 level (ELISA) in treated cells; assay type: cell-based, human
MCF-7 [3] = test: Annexin V-FITC/PI dual staining apoptosis assay, MCF-7; assay type: cell-based, human
MCF-7 [4] = test: DNA flow cytometric cell cycle analysis, MCF-7; assay type: cell-based, human
Caspase-9 = Caspase-9 level (ELISA) in treated cells; assay type: cell-based, human
MDA-MB-231 [5] = test: DNA flow cytometric cell cycle analysis, MDA-MB-231; assay type: cell-based, human
MDA-MB-231 [6] = test: Annexin V-FITC/PI dual staining apoptosis assay, MDA-MB-231; assay type: cell-based, human; conditions: MDA-MB-231
ARO = system: ARO; design: method as in PMID 21341743, PMID 28512028, PMID 15358790, PMID 24607878, PMID 30360952; conditions: reported coumarin derivatives, Fig. 1b; read-out: ARO inhibitior IC50; cited from earlier work
[7] = EGFR IC50, lab report 01-11-2021, 10 compounds
[8] = MDA-MB-231, read-out: MDA-MBA-231 IC50
[9] = MDA-MB-231, read-out: cytotoxicity_IC50 MDA
[10] = MCF7, read-out: cytotoxicity_IC50 mcf7
[11] = MCF-7, compared to untreated control
[12] = MDA-MB-231, compared to control

Sequence of EGFR (P00533 25-1210): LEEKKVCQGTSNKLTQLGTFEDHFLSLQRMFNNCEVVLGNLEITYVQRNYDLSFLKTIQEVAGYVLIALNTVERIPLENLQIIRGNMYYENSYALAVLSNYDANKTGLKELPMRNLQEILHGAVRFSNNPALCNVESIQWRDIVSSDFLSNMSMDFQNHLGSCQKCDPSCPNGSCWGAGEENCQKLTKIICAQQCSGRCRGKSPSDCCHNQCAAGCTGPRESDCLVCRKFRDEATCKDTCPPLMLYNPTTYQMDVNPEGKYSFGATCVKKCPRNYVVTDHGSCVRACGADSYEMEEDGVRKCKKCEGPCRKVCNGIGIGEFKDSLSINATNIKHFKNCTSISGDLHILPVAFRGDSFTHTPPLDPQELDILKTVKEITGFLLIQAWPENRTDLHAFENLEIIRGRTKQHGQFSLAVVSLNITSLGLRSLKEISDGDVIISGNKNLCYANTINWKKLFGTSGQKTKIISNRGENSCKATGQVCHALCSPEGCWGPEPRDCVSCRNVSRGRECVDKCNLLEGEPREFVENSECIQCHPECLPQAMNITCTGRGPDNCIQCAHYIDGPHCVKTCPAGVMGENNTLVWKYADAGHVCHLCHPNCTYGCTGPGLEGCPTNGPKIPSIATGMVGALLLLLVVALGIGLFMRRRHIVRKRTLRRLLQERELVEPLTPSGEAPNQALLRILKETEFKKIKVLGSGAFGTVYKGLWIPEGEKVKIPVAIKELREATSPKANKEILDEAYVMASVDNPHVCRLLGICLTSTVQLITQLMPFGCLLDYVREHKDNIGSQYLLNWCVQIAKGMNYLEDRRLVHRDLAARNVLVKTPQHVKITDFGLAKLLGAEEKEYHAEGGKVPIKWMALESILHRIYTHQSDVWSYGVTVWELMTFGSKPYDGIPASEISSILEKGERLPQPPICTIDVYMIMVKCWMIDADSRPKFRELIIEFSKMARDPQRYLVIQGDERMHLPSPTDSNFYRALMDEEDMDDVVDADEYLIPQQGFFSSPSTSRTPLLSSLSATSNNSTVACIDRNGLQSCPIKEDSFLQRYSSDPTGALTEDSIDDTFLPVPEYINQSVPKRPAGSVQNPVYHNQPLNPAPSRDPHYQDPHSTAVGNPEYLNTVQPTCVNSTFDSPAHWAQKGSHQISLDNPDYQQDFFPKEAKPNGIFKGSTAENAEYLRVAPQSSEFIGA

O=C(OCc1cc(=O)oc2cc(O)ccc12)c1ccccc1 [Compound 2, (7-Hydroxy-2-oxo-2H-chromen-4-yl)methyl benzoate]
IC50 at 48 h (in vitro): 55 ± 2.68 µg/mL (≈ 186 µM) | viability at 48 h, 0.4 ug (in vitro): 88% | viability at 48 h, 1.6 ug (in vitro): 77.2% | viability at 48 h, 6.25 ug (in vitro): 66.5% | viability at 48 h, 25 ug (in vitro): 57.6% | viability at 48 h, 100 ug (in vitro): 44.4% | IC50 (EGFR; [7]): 864 nM | IC50 (EGFR; EGFR inhibition IC50): 864 ± 54 nM | EGFR %inh (EGFR; conc 0.01 (unit not given)): 20% | EGFR %inh (EGFR; conc 0.1 (unit not given)): 41% | EGFR %inh (EGFR; conc 1 (unit not given)): 63% | EGFR %inh (EGFR; conc 10 (unit not given)): 84% | Percentage above Reference IC50 (potency relative to erlotinib) (EGFR; reference Erlotinib): 9.722% | IC50 (aromatase (ARO); ARO inhibition IC50): 216 ± 10 nM | IC50 (aromatase (ARO); Aromatase IC50, lab report 14-12-2020): 216 nM | inhibition at 10 pg/mL (aromatase (ARO); read-out: %inh): 37% | inhibition at 0.0001 µg/mL (aromatase (ARO); read-out: %inh): 54% | inhibition at 0.001 µg/mL (aromatase (ARO); read-out: %inh): 68% | inhibition at 0.01 µg/mL (aromatase (ARO); read-out: %inh): 89% | IC50 (MDA-MB-231 [1]; [8]): 51900 ± 840 nM | IC50 (MDA-MB-231 [1]; [9]): 15.4 ± 0.84 µg/mL | % viability (MDA-MB-231 [1]; 0.4ug (log conc. -0.41)): 75.87% and 75.875% | % viability (MDA-MB-231 [1]; 1.6ug (log conc. 0.19)): 65.56% and 65.561% | % viability (MDA-MB-231 [1]; 6.25ug (log conc. 0.8)): 57.358% and 57.36% | % viability (MDA-MB-231 [1]; 25ug (log conc. 1.4)): 47.527% and 47.53% | % viability (MDA-MB-231 [1]; 100ug (log conc. 2)): 36.5501% and 36.55% | IC50 (MCF-10A): 186000 ± 2680 nM | IC50 (MCF-7 [2]; MCF7, read-out: MCF-7 IC50): 6000 ± 110 nM | IC50 (MCF-7 [2]; [10]): 1.78 ± 0.11 µg/mL | % viability (MCF-7 [2]; MCF7, 0.4ug): 58.765% | % viability (MCF-7 [2]; MCF7, 1.6ug): 52.469% | % viability (MCF-7 [2]; MCF7, 6.3ug): 41.79% | % viability (MCF-7 [2]; MCF7, 25ug): 32.963% | % viability (MCF-7 [2]; MCF7, 100ug): 21.0494%

O=C(COc1ccc2c(COC(=O)c3ccccc3)cc(=O)oc2c1)c1ccc(Cl)cc1 [Compound 8, {7-[2-(4-Chlorophenyl)-2-oxoethoxy]-2-oxo-2H-chromen-4-yl}methyl benzoate]
Bax Conc (Bax; MCF-7 cells): 0.164±0.0056^acd ng/ml | IC50 at 48 h (in vitro): 35.8 ± 1.74 µg/mL (≈ 79.8 µM) | viability at 48 h, 0.4 ug (in vitro): 84.7% | viability at 48 h, 1.6 ug (in vitro): 69.5% | viability at 48 h, 6.25 ug (in vitro): 63.2% | viability at 48 h, 25 ug (in vitro): 51.8% | viability at 48 h, 100 ug (in vitro): 43.6% | Bcl-2 Conc (Bcl-2; MCF-7 cells): 3.291±0.36^a ng/ml | IC50 (EGFR; [7]): 1100 nM | IC50 (EGFR; EGFR inhibition IC50): 1100 ± 66 nM | EGFR %inh (EGFR; conc 10 (unit not given)): 83% | Percentage above Reference IC50 (potency relative to erlotinib) (EGFR; reference Erlotinib): 7.636% | IC50 (MDA-MB-231 [1]; [8]): 27500 ± 670 nM | IC50 (MDA-MB-231 [1]; [9]): 12.3 ± 0.67 µg/mL | Apoptosis Late (MCF-7 [3]; MCF7): 19.66 | Apoptosis Total (MCF-7 [3]; MCF7): 31.19 | % Apoptosis Early (MCF-7 [3]; MCF-7): 4.94^abcA % | % Apoptosis Late (MCF-7 [3]; MCF-7): 19.66^acA % | % Apoptosis Total (MCF-7 [3]; MCF-7): 31.19% and 31.19^abc % | % Necrosis (MCF-7 [3]; MCF-7): 6.59% | IC50 (MCF-10A): 79900 ± 1740 nM | Comment (cell cycle phase of growth arrest) (MCF-7 [4]; MCF7): cell growth arrest@ G1/S | DNA content %G0-G1 (MCF-7 [4]; MCF7): 55.83% | DNA content %Pre-G1 (MCF-7 [4]; MCF7): 31.19% | DNA content %S (MCF-7 [4]; MCF7): 39.85% | %G0-G1 (MCF-7 [4]; MCF-7, IC50 concentration): 55.83^c ^ACD % | %Pre-G1 (MCF-7 [4]; MCF-7, IC50 concentration): 31.19^ae ^AB % | %S (MCF-7 [4]; MCF-7, IC50 concentration): 39.85 ^CE % | arrest in S phase (MCF-7 [4]; [11]): 1.33 folds | increase of apoptotic cells in pre-G1 phase (MCF-7 [4]; [11]): 18.67 folds | Caspase-9 Conc. (Caspase-9; MCF-7 cells): 30.39±2.56^abc ng/ml | IC50 (MCF-7 [2]; MCF7, read-out: MCF-7 IC50): 5800 ± 160 nM | IC50 (MCF-7 [2]; [10]): 2.62 ± 0.16 µg/mL | % viability (MCF-7 [2]; MCF7, 0.4ug): 61.556% | % viability (MCF-7 [2]; MCF7, 1.6ug): 54.284% | % viability (MCF-7 [2]; MCF7, 6.3ug): 43.461% | % viability (MCF-7 [2]; MCF7, 25ug): 36.189% | % viability (MCF-7 [2]; MCF7, 100ug): 27.3957%

CC(=O)Oc1ccc2c(COC(=O)c3ccc(Cl)cc3)cc(=O)oc2c1 [Compound 14, (7-Acetoxy-2-oxo-2H-chromen-4-yl)methyl 4-chlorobenzoate]
Bax Conc (Bax; MDA-MB-231 cells): 0.292±0.0106^ghi ng/ml | Bax FLD (fold versus control) (Bax; MDA-MB-231 cells): 4.9 folds | %G0-G1 (MDA-MB-231 [5]; MDA-MB-231, IC50 concentration): 54.69^ikBD % | %G2/M (MDA-MB-231 [5]; MDA-MB-231, IC50 concentration): 7.09^dACDE % | %Pre-G1 (MDA-MB-231 [5]; MDA-MB-231, IC50 concentration): 41.02^iklmC % | %S (MDA-MB-231 [5]; MDA-MB-231, IC50 concentration): 38.22^ABE % | cell cycle arrest at S phase (MDA-MB-231 [5]; [12]): 1.38 folds | increase of apoptotic cells in pre-G1 phase (MDA-MB-231 [5]; [12]): 19.9 folds | % Apoptosis Early (MDA-MB-231 [6]): 23.61^ilmn % | % Apoptosis Late (MDA-MB-231 [6]): 13.22^hik % | % Apoptosis Total (MDA-MB-231 [6]): 41.02% and 41.02^gh % | % Necrosis (MDA-MB-231 [6]): 4.19% | IC50 at 48 h (in vitro): 97.9 ± 4.77 µg/mL (≈ 263 µM) | viability at 48 h, 0.4 ug (in vitro): 85.6% | viability at 48 h, 1.6 ug (in vitro): 77.6% | viability at 48 h, 6.25 ug (in vitro): 67.2% | viability at 48 h, 25 ug (in vitro): 59.5% | viability at 48 h, 100 ug (in vitro): 49.6% | Bcl-2 Conc (Bcl-2; MDA-MB-231 cells): 2.984±0.12^gh ng/ml | Bcl-2 FLD (fold versus control) (Bcl-2; MDA-MB-231 cells): 0.329 folds | IC50 (EGFR; EGFR IC50, lab report 01-09-2021, 04 compounds, reference Erlotinib): 2440 nM | IC50 (EGFR; EGFR inhibition IC50): 2440 ± 51 nM | inhibition at 10 pg/mL (EGFR; read-out: EGFR %inh): 18% | inhibition at 0.0001 µg/mL (EGFR; read-out: EGFR %inh): 24% | inhibition at 0.001 µg/mL (EGFR; read-out: EGFR %inh): 44% | inhibition at 0.01 µg/mL (EGFR; read-out: EGFR %inh): 78% | Percentage above Reference IC50 (potency relative to erlotinib) (EGFR; reference Erlotinib): 5.942% | selectivity against MDA-MB-231 than MCF-7 (MDA-MB-231 [1]): 150 times | IC50 (MDA-MB-231 [1]; [8]): 1900 ± 30 nM | IC50 (MDA-MB-231 [1]; [9]): 0.64 ± 0.03 µg/mL | % viability (MDA-MB-231 [1]; 0.4ug (log conc. -0.41)): 53.505% | % viability (MDA-MB-231 [1]; 1.6ug (log conc. 0.19)): 43.354% | % viability (MDA-MB-231 [1]; 6.25ug (log conc. 0.8)): 34.773% | % viability (MDA-MB-231 [1]; 25ug (log conc. 1.4)): 26.136% | % viability (MDA-MB-231 [1]; 100ug (log conc. 2)): 15.4795% | IC50 (MCF-10A): 263000 ± 4770 nM | Caspase-9 Conc. (Caspase-9; MDA-MB-231 cells): 18.97±0.62^ghi ng/ml | Caspase-9 FLD (fold versus control) (Caspase-9; MDA-MB-231 cells): 4.37 folds | IC50 (MCF-7 [2]; MCF7, read-out: MCF-7 IC50): 285000 ± 6410 nM | IC50 (MCF-7 [2]; [10]): 106 ± 6.41 µg/mL | % viability (MCF-7 [2]; MCF7, 0.4ug): 88.083% | % viability (MCF-7 [2]; MCF7, 1.6ug): 77.238% | % viability (MCF-7 [2]; MCF7, 6.3ug): 66.961% | % viability (MCF-7 [2]; MCF7, 25ug): 60.34% | % viability (MCF-7 [2]; MCF7, 100ug): 50.7566%

O=c1cc(Cn2ccnc2)c2ccc(Oc3ccc(F)c(F)c3)cc2o1 [II]
IC50 (ARO): 47 nM

COc1ccc2c(Cc3ccccc3)c(-c3ccc(Cl)cc3)c(=O)oc2c1 [IV]
IC50 (ARO): 80 nM
